We go through 1 compound from US20140154312A1, “ORAL TARGETTED DRUG DELIVERY SYSTEM” (priority 2010, published 2014).

“Also recorded” adds a separate entry of the source.

The subject of series [1] is colonic micro flora (caecal contents of the rat). Description: In vitro dissolution (drug release) of natural gum based 5-FU delivery systems in medium containing caecal contents of orally treated rats. The settings on record: label = treatment given p.o. to the rats whose caecal contents (4% w/v) were used, 5-FU 8 mg/day, probiotics 1 g/day, pH 1.2 for 2 h, pH 6.8 for 3 h, then caecal medium. In kind it is physicochemical, Wister Albino rats. On the procedure: (§1) To answer the questions as above, the inventors adopted an innovative experimental approach using a ‘living biological system’ comprising rats. All the experimental procedures were approved by the Institutional Animal Ethics Committee vide Approval Number 954/ac/06/CPCSEA/09/19. The experimental study was conducted on thirty Wister Albino rats. The animals were divided into 6 groups of five each.
(§2) The dosages were freshly prepared every day by suspending in milk. They were administered by oral gavage needle for first and subsequent exposure for a duration of five days each, at an interval of 20 days.
2 animals from each group were humanely sacrificed for the collection of caecal contents in sterile petri plates, which was immediately utilized for the dissolution studies. For dissolution studies, compression coated tablets of 5-FU with natural gums and microspheres of 5-FU with natural gums were used. The experiments were carried out in 250 ml beaker immersed in water maintained in the jars of dissolution test apparatus. Initial studies were carried out in 150 ml of 0.1N HCl (pH 1.2) for 2 h. After this, NaOH was added to the dissolution media and the pH was adjusted to 6.8. The volume was made up to 200 ml with phosphate buffer of pH 6.8. The study was continued for 3 hours after which, caecal contents (4% w/v) were added. […]

The next series concerns Albino Wister Rats. Nature of the series: Unwanted side-effects on oral administration in rats (hair, body weight, diarrhea, caecal contents, colon histopathology). The format is in vivo. The following applies: p.o., 5-FU 8 mg/day for 5 days, probiotics 1 g/day where given. As to the method: as §1, §2
To address whether the unwanted side-effects of colonic drugs e.g. diarrhea, hair loss etc. could also be reduced or eliminated using the ‘innovative approach’ of the present invention, trials were conducted in animals (rats) using 5-FU as a ‘model’.

Take `O=c1[nH]cc(F)c(=O)[nH]1` [5-FU powder, 5-Fluorouracil]: in series [1] (excipient-only control rats: 83), the “% drug released in 24 h on exposure to caecal contents of the rat: Compression coated tablets of 5-FU coated with natural gums” value was 52%. Moreover, the “% drug released in 24 h on exposure to caecal contents of the rat: 5-FU loaded microspheres comprising the drug and natural gums” value in series [1] (excipient-only control rats: 92.20) is given as 41.56%. For the same compound, in the series with Albino Wister Rats, the body weight loss result is given as “loss”; the diarrhea entry is on record as “bloody diarrhea”; the “histopathological examination of the colon” value is “ulceration and loss of epithelial lining; also recorded: diffuse ulceration of the colonic mucosa with loss of lining epithelium”; the loss of hair result is given as “loss of hair”. Moreover, in the series on Albino Wister Rats (listed as 5-FU), the body weight loss result is reported as “loss of weight”; the loss of hair result was “loss of weight and hair”.
